In publication PMC7072329, “Discovery of Kynurenines Containing Oligopeptides as Potent Opioid Receptor Agonists” (Biomolecules, 2020):
Several values for one entry are separate records, joined by “and”; a condition that tells them apart may be missing. Equal entries are not always repeated. Where a SMILES comes first, the peptide text is derived from it. [ ]: non-standard residue; d: D form. Kyn = Nc1ccccc1C(=O)C[C@H](N)C(=O)O

Legend:
[1] = test system: CD-1 male mice; experiment: formalin test; format: in vivo; settings: s.c. in hind paw, 100 μg/20 μL, 15 min before formalin
Procedure: In our experiments, we used CD-1 male mice (Harlan, Italy, 25–30 g) maintained in colony, housed in cages (7 mice per cage) under standard light/dark cycle (from 7:00 a.m. to 7:00 p.m.), temperature (21 ± 1 °C) and relative humidity (60% ± 10%) for at least 1 week. Food and water were available ad libitum. The Service for Biotechnology and Animal Welfare of the Istituto Superiore di Sanità and the Italian Ministry of Health authorized the experimental protocol according to Legislative Decree 26/14.
DMSO was purchased from Merck (Rome, Italy). Peptides solutions were freshly prepared using saline containing 0.9% NaCl and DMSO in the ratio DMSO/saline 1:5 v/v every experimental day. These solutions were injected at a volume of 10 μL/mouse for intracerebroventricular (i.c.v.) administrations or at a volume of 20 μL/mouse for subcutaneous administrations.
In the formalin test, the injection of a dilute solution of formalin (1%, 20 μL/paw) into the dorsal surface of the mouse hind paw evoked biphasic nociceptive behavioral responses, such as licking, biting the injected paw, or both, occurring from 0 to 10 min after formalin injection (the early phase) and a prolonged phase, occurring from 15 to 40 min (the late phase). Before the test, mice were individually placed in a Plexiglas observation cage (30 × 14 × 12 cm) for one hour, to acclimatize to the testing environment. The total time the animal spent licking or biting its paw during the early and late phase of formalin-induced nociception was recorded.
Experimental data were expressed as mean ± s.e.m. In the tail flick test, significant differences among the groups were evaluated with two-way ANOVA followed by Sidak’s multiple comparisons test. Formalin test data were analyzed by using one-way ANOVA, followed by Holm–Sidak’s multiple comparisons test. […] Statistical significance was set at p < 0.05. The data and statistical analysis comply with the recommendations on experimental design and analysis in pharmacology.
Early phase represents the formalin-induced nociceptive behavior recorded from 0 to 10 min after formalin injection; late phase is for the formalin-induced nociceptive behavior recorded from 15 to 40 min after formalin injection. V is for vehicle-treated animals. Statistical analysis: one-way ANOVA followed by Holm–Sidak’s multiple comparisons test. ** is for p < 0.01 and *** is for p < 0.001 vs. V. n = 7.

[2] = target: NMDA receptor; experiment: [3H]MK-801 competition binding, rat brain membrane; settings: read-out: Ki + S.E.M., displacement of [3H]MK-801
[3] = target: G-protein; experiment: functional [35S]GTPγS binding, rat brain membrane homogenates; format: biochemical
Procedure: Rats and guinea pigs were decapitated, and their brains were quickly removed. The brains were used for membrane preparation following the procedure reported by Benyhe for binding and [^35S]GTPγS binding experiments, in agreement with the protocol of Zádor et al..
Homogenization of brains was performed in 30 volumes (v/w) of ice-cold 50 mM Tris-HCl pH 7.4 buffer with a Teflon-glass Braun homogenizer at 1500 rpm. The centrifuge was settled at 18,000 rpm for 20 min at 4 °C, the resulting supernatant discarded, and the pellet taken up in the original volume of Tris-HCl buffer. Incubation of homogenate at 37 °C for 30 min was performed in a shaking water-bath. Five volumes of 50 mM Tris-HCl pH 7.4 buffer were used to suspend the final pellet at −80 °C. For the [^35S]GTPγS binding experiments, the brains were homogenized with a Dounce in 5 volumes (v/w) of ice-cold TEM (Tris-HCl, EGTA, MgCl2) at −80 °C. The protein content of the membrane preparation was determined by the method of Bradford, BSA being used as a standard.
The functional [^35S]GTPγS binding experiments were performed as previously described. Briefly the membrane homogenates were incubated at 30 °C for 60 min in Tris-EGTA buffer (pH 7.4) composed of 50 mM Tris-HCl, 1 mM EGTA, 3 mM MgCl2, 100 mM NaCl, containing 20 MBq/0.05 cm^3 [^35S]GTPγS (0.05 nM) and increasing concentrations (10^−10 to 10^−5 M) of ligands. The experiments were performed in the presence of excess GDP (30 μM) in a final volume of 1 mL. Total binding was measured in the absence of test compounds, non-specific binding was determined in the presence of 10 μM unlabeled GTPγS. The reaction was terminated by rapid filtration under vacuum and washed three times with 5 mL ice-cold 50 mM Tris-HCl (pH 7.4) buffer through Whatman GF/B glass fibers. The radioactivity of the filters was detected in an UltimaGold^TM MV aqueous scintillation cocktail with a Packard Tricarb 2300TR liquid scintillation counter.
Experimental data are presented as means ± S.E.M. Sigmoid dose-response curves were fitted with GraphPad Prism 5.0 (GraphPad Prism Software Inc., San Diego, CA, USA). An unpaired t-test with two-tailed p value was performed to determine the significance level. In the competition binding assays, the ‘One site competition’ fitting was used to establish the equilibrium binding affinity (Ki value).
[35S]GTPγS binding assay in rat brain membrane homogenates. Figure S2 represents the specific binding of [35S]GTPγS in percentage in presence of increasing concentrations (10-10 - 10^-5 M) of the indicated ligands. “Total” on the x-axis indicates the basal activity of the monitored G-protein, which is measured in the absence of the ligands and represents the total specific binding of [35S]GTPγS. The level of basal activity was defined as 100% and it is presented with a dotted line. Points represent means ± S.E.M. for at least three experiments […]
Figure S3. The effect of novel oligopeptides on G-protein activity in [35S]GTPγS binding assays in the absence or presence of the selective MOR antagonist cyprodime (Cyp) and the selective DOR antagonist naltrindole (NTI) in rat brain membrane homogenates (Figure A) and the selective KOR antagonist norbinaltorphine (nor-BNI) in guinea pig brain membrane homogenates (Figure B). The level of basal activity was defined as 100% and it is presented with a dotted line. Points represent means ± S.E.M. for at least three experiments performed

## C[C@@H](NC(=O)[C@@H](N)Cc1ccc(O)cc1)C(=O)NCC(=O)N[C@@H](Cc1ccccc1)C(=O)N[C@@H](CC(=O)c1ccccc1N)C(N)=O [Peptide K6] (H-Y[dA]GF[Kyn]-NH2)
[1]; 0 to 10 min
  formalin-induced nociceptive behavior, early phase: able to reduce the nociceptive response to formalin in the early phase
[1]; 15 to 40 min
  formalin-induced nociceptive behavior, late phase: light but not significant reduction
[2]
  Ki: > 10 µM
[3]; dose-response curves
  Potency Log EC50 ± S.E.M.: −5.984 ± 0.054
[3]; dose-response curves, basal = 100%
  Maximal Stimulation (Efficacy) Emax ± S.E.M.: 209.7 ± 3.4%
[3]; ligand alone, bar graphs Figure S3
  Emax + S.E.M., Ligand: 211% and 211.7 ± 3.1%
